Data reported in patent US7517873B2, “Substituted pyrimidodiazepines” (Hoffman-La Roche Inc., priority 2007, dated 2009).

biological target: T1, GST-PLK1 (Homo sapiens, UniProt P53350); assay: Biochemical Characterization Assay: GST-PLK1 kinase HTRF assay with GST-p53 substrate; conditions: full-length GST-PLK1, GST-p53 and ATP, 37° C. for 35 minutes, HTRF signal
T1 construct: Full-length, active GST-PLK1 is purified from Sf9 insect cells; made in house; host or cells: Sf9 insect cells
Procedure, shortened: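 Full-length GST-PLK1 from Sf9 cells (3 ug/mL stock) with full-length E. coli GST-p53 substrate in HEPES pH 7 buffer with MgCl2, TCEP, orthovanadate, BSA and Triton X-100; compound stocks 0.6 nM-4 mM in DMSO. Reaction 35 min at 37 °C, EDTA-stopped; phospho-p53 detected by HTRF (Eu anti-rabbit/APC anti-GST).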

T1 sequence (P53350 whole entry): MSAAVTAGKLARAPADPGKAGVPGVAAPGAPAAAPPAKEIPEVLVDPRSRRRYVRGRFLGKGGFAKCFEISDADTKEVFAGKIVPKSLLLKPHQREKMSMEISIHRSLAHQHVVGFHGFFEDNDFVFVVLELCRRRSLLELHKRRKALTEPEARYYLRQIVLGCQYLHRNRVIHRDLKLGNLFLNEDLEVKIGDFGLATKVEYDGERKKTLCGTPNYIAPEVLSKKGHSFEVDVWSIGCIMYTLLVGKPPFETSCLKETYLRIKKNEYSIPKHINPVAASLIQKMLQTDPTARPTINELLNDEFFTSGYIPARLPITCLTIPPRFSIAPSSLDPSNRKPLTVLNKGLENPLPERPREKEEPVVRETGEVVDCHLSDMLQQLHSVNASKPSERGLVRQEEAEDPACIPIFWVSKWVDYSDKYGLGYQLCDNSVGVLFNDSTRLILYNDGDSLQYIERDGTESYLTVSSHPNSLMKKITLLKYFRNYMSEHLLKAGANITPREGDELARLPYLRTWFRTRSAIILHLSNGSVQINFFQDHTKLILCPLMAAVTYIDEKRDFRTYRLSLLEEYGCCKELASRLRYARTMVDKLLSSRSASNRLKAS

Compound	IC50 [nM]
CC1CN(C2CCCCC2)c2nc(Nc3ccc4oc(-c5ccncc5)nc4c3)ncc2N(C)C1=O (racemic) [I-26, (rac)-9-Cyclohexyl-5,7-dimethyl-2-(2-pyridin-4-yl-benzooxazol-5-ylamino)-5,7,8,9-tetrahydro-pyrimido[4,5-b][1,4]diazepin-6-one]	> 5000
CCN1CCC(NC(=O)c2cccc(Nc3ncc4c(n3)N(C3CCCC3)CC(C)C(=O)N4C)c2)CC1 (racemic) [I-89, (rac)-3-(9-Cyclopentyl-5,7-dimethyl-6-oxo-6,7,8,9-tetrahydro-5H-pyrimido[4,5-b][1,4]diazepin-2-ylamino)-N-(1-ethyl-piperidin-4-yl)-benzamide]	500 to 5000
COc1cc(C(=O)NC2CCN(C)CC2)ccc1Nc1ncc2c(n1)N(Cc1ccccc1)CCC(=O)N2C [I-22, 4-(9-Benzyl-5-methyl-6-oxo-6,7,8,9-tetrahydro-5H-pyrimido[4,5-b][1,4]diazepin-2-ylamino)-3-methoxy-N-(1-methyl-piperidin-4-yl)-benzamide]	500 to 5000
CC1CN(C2CCCC2)c2nc(Nc3ccc(C(=O)NCCCN(C)C)c(Cl)c3)ncc2N(C)C1=O (racemic) [I-83, (rac)-2-Chloro-4-(9-cyclopentyl-5,7-dimethyl-6-oxo-6,7,8,9-tetrahydro-5H-pyrimido[4,5-b][1,4]diazepin-2-ylamino)-N-(3-dimethylamino-propyl)-benzamide]	500 to 5000
CN1CCC(NC(=O)c2ccc(Nc3ncc4c(n3)N(C3CCCC3)CC(C)(C)C(=O)N4C)cc2)CC1 [I-50, 4-(9-Cyclopentyl-5,7,7-trimethyl-6-oxo-6,7,8,9-tetrahydro-5H-pyrimido[4,5-b][1,4]diazepin-2-ylamino)-N-(1-methyl-piperidin-4-yl)-benzamide]	< 500
COc1cc(C(=O)N2CCCCC2)ccc1Nc1ncc2c(n1)N(C1CCCCC1)CCC(=O)N2 [I-32, 9-Cyclohexyl-2-[2-methoxy-4-(piperidine-1-carbonyl)-phenylamino]-5,7,8,9-tetrahydro-pyrimido[4,5-b][1,4]diazepin-6-one]	> 5000
Cc1cc(C(=O)NC2CCN(C)CC2)ccc1Nc1ncc2c(n1)N(C1CCCC1)CC1(CC1)C(=O)N2C [I-61, 4-[(9-Cyclopentyl-6,7,8,9-tetrahydro-5-methyl-6-oxospiro[5H-pyrimido[4,5-b][1,4]diazepine-7,1′-cyclopropan]-2-yl)amino]-3-methyl-N-(1-methyl-4-piperidinyl)benzamide]	< 500
COc1cc(C(=O)NC2CCN(C)CC2)ccc1Nc1ncc2c(n1)N(C1CCC(C)C1)CCC(=O)N2C (racemic) [I-58, (rac)-3-Methoxy-4-[5-methyl-9-(3-methyl-cyclopentyl)-6-oxo-6,7,8,9-tetrahydro-5H-pyrimido[4,5-b][1,4]diazepin-2-ylamino]-N-(1-methyl-piperidin-4-yl)-benzamide]	< 500
CCC1CN(C2CCCC2)c2nc(Nc3ccc(C(=O)NC4CCN(C)CC4)cc3OC)ncc2N(CC)C1=O (racemic) [I-15, (rac)-4-(9-Cyclopentyl-5,7-diethyl-6-oxo-6,7,8,9-tetrahydro-5H-pyrimido[4,5-b][1,4]diazepin-2-ylamino)-3-methoxy-N-(1-methyl-piperidin-4-yl)-benzamide]	500 to 5000
COc1cc(C(=O)NC2CCN(C)CC2)ccc1Nc1ncc2c(n1)N1CCCC(C1)C(=O)N2C (racemic) [I-67, (rac)-3-Methoxy-4-(8-methyl-9-oxo-1,3,5,8-tetraaza-tricyclo[8.3.1.0*2,7*]tetradeca-2,4,6-trien-4-ylamino)-N-(1-methyl-piperidin-4-yl)-benzamide]	> 5000
